This passage reports EC50 results from PubChem BioAssay AID1959 (Broad Institute, 2009).

Each structure is given as a SMILES string. Activity calls are given as the source filed them.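 How the source made its calls: active means growth-inhibition EC50 no more than tenfold above the top tested dose; inconclusive means flat fit between 30% and 70% inhibition, or unreliable fit; inactive means EC50 more than tenfold above the top tested dose.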

A word on the EC50: it is the concentration needed to bring the measured effect to its halfway point.

The test has as its system E. coli NEB5alpha growth, BacTiter-Glo luminescence, 4 h. Put plainly: antibacterial activity against E. coli NEB5alpha – luminescence, counter-screen for MEX-5/POS-1 RNA-binding inhibitor project, dose response (AID 1959;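 further: pUC19-transformed ampicillin-resistant cells grown in LB with ampicillin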). (Counterscreens check selectivity or assay interference.)
`COc1ccc(C2C(C(C)=O)=C(C)N=c3s/c(=C\c4cc(C)n(C)c4C)c(=O)n32)c(OC)c1` (stereo not drawn): the EC50 is > 11 µM (inactive).

Consider `CC1=CC(C#N)(C#N)C(C#N)(C#N)C(c2ccccc2)N1` (stereo not drawn), for which the EC50 is > 11 µM (inactive).

Regarding `CC(C)(C)OC(=O)N1CC=C2C(C#N)=C(N)C(C#N)(C#N)[C@H](c3cccnc3)[C@H]2C1`, the EC50 is > 11 µM (inactive).

As for `O=c1[nH]c(=O)n(CCc2ccccc2)c(O)c1C=NCCCn1ccnc1`, the EC50 was > 11 µM (inactive).

For the compound `O=[N+]([O-])c1ccccc1S(=O)(=O)n1nnc2ccccc21`, the EC50 is > 11 µM (inactive).

For the compound `Cc1ccc(Cl)c2c(N=Nc3ccccc3)c(O)[nH]c12`, the EC50 was > 11 µM (inactive).

Consider `O=C1NC(=S)/C(=C\c2ccc(-c3ccccc3Cl)o2)S1`, for which the EC50 was > 11 µM (inactive).

For the compound `CC1(C)CC(=O)C2=C(C1)OC(N)=C(C#N)C21C(=O)N(CN2CCOCC2)c2ccccc21` (stereo not drawn), the EC50 is > 11 µM (inactive).

As to `CCN1CCN(Cc2c(O)ccc3c2O/C(=C\c2ccc(C)cc2)C3=O)CC1`, the EC50 was > 11 µM (inactive).

With `Cc1cc2c3c(c1C)C1(C(=O)N3C(C)(C)CC2C)C(C#N)=C(N)OC2=C1C(=O)CC(C)(C)C2` (stereo not drawn), the EC50 was > 11 µM (inactive).

With `CN(C)c1ccc(/C=N/N(CCC(=O)NC(C)(C)C)C2=NS(=O)(=O)c3ccccc32)cc1`, the EC50 is > 11 µM (inactive).

In the case of `CN(C)CCCN1C(=O)c2cccc3c(Br)ccc(c23)C1=O`, the EC50 is > 11 µM (inactive).

As for `O=C(CCc1ccc(O)c(O)c1)N/N=C/c1cc2c(cc1[N+](=O)[O-])OCO2`, the EC50 was > 11 µM (inactive).

Take `COc1ccc(NC(=O)c2ccc(NCCCN3CCOCC3)c([N+](=O)[O-])c2)cc1`: the EC50 was > 11 µM (inactive).

Take `CCOC(=O)Cn1c(=O)c(-c2cc(Br)ccc2N)nc2ccccc21`: the EC50 is > 11 µM (inactive).

In the case of `Oc1ccc(N=Nc2ccccc2-c2nn[nH]n2)c(O)c1`, the EC50 was > 11 µM (inactive).

For the compound `CCOC(=O)c1c2ccc(OCC(=O)N/N=C/c3ccc(Cl)cc3)cc2n2ccccc12`, the EC50 is > 11 µM (inactive).

`COc1ccc(C=C2C(=O)OC(C)(C)OC2=O)cc1OC`: the EC50 was > 11 µM (inactive).

Turning to `CCOC(=O)c1cc(-c2ccccc2)sc1NC(=S)Nc1cc(C)ccn1`, the EC50 was > 11 µM (inactive).

With `Cc1ccc([N+](=O)[O-])cc1S(=O)(=O)Nc1ccc(O)c(Sc2ncn[nH]2)c1`, the EC50 was > 11 µM (inactive).

Take `CC1=Nc2ccc(C)cc2/C1=C/c1c(N)n2nc(CC(=O)N3CCOCC3)sc2nc1=O`: the EC50 is > 11 µM (inactive).

On to `Cc1ccccc1OCC(=O)Nc1ccc2c(c1)C(=O)c1ccccc1C2=O`, for which the EC50 is > 11 µM (inactive).

In the case of `CCCn1c(N)c(N(CCOC)C(=O)Cc2ccc(S(=O)(=O)N3CCOCC3)s2)c(=O)[nH]c1=O`, the EC50 was > 11 µM (inactive).

Turning to `Cc1cc(/C=C2/C(=O)NC(=O)N(c3ccc(Br)cc3)C2=O)c(C)n1C`, the EC50 was > 11 µM (inactive).

With `O=S(=O)(NNC(=S)Nc1ccc(S(=O)(=O)Nc2ncccn2)cc1)c1ccc(Br)cc1`, the EC50 is > 11 µM (inactive).

For `O=C(Nc1ccccc1)c1nn(-c2ccccc2)c(=O)cc1C(F)(F)F`, the EC50 is > 11 µM (inactive).

For `CC(=O)c1ccc2c(c1)C1C=CCC1C(c1ccncc1)N2` (stereo not drawn), the EC50 is > 11 µM (inactive).

As for `NS(=O)(=O)c1ccc(NC(=O)COC(=O)c2cn(-c3ccccc3)nc2-c2ccc(F)cc2)cc1`, the EC50 is > 11 µM (inactive).

`O=C(O)c1cc(Cl)c2c(c1)[C@@H]1C=CC[C@@H]1[C@H](c1ccc(S(=O)(=O)N3CCOCC3)cc1)N2`: the EC50 was > 11 µM (inactive).

For the compound `N#CC1=C(N)OC2=C(C(=O)CCC2)C1c1ccc(OC(=O)N2CCOCC2)cc1` (stereo not drawn), the EC50 is > 11 µM (inactive).

For the compound `c1ccc(-c2nc(-c3ccccn3)nc(-c3ccccn3)n2)nc1`, the EC50 was > 11 µM (inactive).

Regarding `c1ccc(-c2cn3nc4c(nc3n2)CCCC4)cc1`, the EC50 is > 11 µM (inactive).

As for `N#Cc1ccccc1CN1C(=O)S/C(=C/c2cccn2-c2ccc(C(=O)O)cc2)C1=O`, the EC50 was > 11 µM (inactive).

With `O=C1c2ccccc2C(=O)c2c1cccc2N(CCO)CCO`, the EC50 is > 11 µM (inactive).

Turning to `O=C(CSCc1c(Cl)cccc1Cl)NCC1CCCO1` (stereo not drawn), the EC50 is > 11 µM (inactive).

With `CCN1C(=O)/C(=C/c2c(C)nn(C)c2C)SC1=S`, the EC50 is > 11 µM (inactive).

In the case of `CCOc1cc(C2C(C#N)=C(N)OC3=C2C(=O)CC(C)(C)C3)cc([N+](=O)[O-])c1O` (stereo not drawn), the EC50 is > 11 µM (inactive).

As for `C(=N\Nc1nc2ccccc2[nH]1)/c1ccccn1`, the EC50 was > 11 µM (inactive).

`OC(C#Cc1ccccn1)c1cccs1` (stereo not drawn): the EC50 is > 11 µM (inactive).

For `CCCCC1=CC2=CC(=O)C(C)(OC(=O)CCc3ccccc3)C(=O)C2=CO1` (stereo not drawn), the EC50 is > 11 µM (inactive).

In the case of `O=C(CCN1C(=O)/C(=C\C=C\c2ccccc2)SC1=S)Nc1ccc(C(=O)O)cc1`, the EC50 is > 11 µM (inactive).

On to `CCn1c(/C=C/c2c(C)[nH]c3ccccc23)nc2ccccc2c1=O`, for which the EC50 is > 11 µM (inactive).

As to `O=C(NCCN1CCOCC1)c1cccn2c(=O)c3c4c(sc3nc12)CCCC4`, the EC50 is > 11 µM (inactive).

With `Cc1onc(-c2c(F)cccc2Cl)c1C(=O)N1CCCc2ccccc21`, the EC50 is > 11 µM (inactive).

Consider `Cc1[nH][nH]c(=O)c1C(c1ccc(-c2ccccc2C(=O)O)o1)c1c(C)[nH][nH]c1=O`, for which the EC50 was > 11 µM (inactive).

As for `CCOCCCNc1nc2nc3ccc(C)cn3c(=O)c2cc1C(=O)NCC1CCCO1` (stereo not drawn), the EC50 is > 11 µM (inactive).

As for `N#Cc1c(N)n(-c2ccc(C(=O)O)cc2)c2nc3ccccc3nc12`, the EC50 is > 11 µM (inactive).

Regarding `COc1cc2c3nnc(-c4ccc(F)cc4)c-3cn(Cc3ccc(C)cc3)c2cc1OC`, the EC50 is > 11 µM (inactive).

As to `CN(C)c1cc(-c2ccc([N+](=O)[O-])cc2)oc(=O)c1Cl`, the EC50 was > 11 µM (inactive).

For `COc1ccc(OC)c(N=Cc2c(O)c3ccccc3oc2=O)c1`, the EC50 is > 11 µM (inactive).

For `Nc1ccc2nc(-c3cccc(-c4nc5ccc(N)cc5[nH]4)n3)[nH]c2c1`, the EC50 is > 11 µM (inactive).

Regarding `COc1ccccc1NC(=O)/C(C#N)=C/c1cc([N+](=O)[O-])ccc1N1CCCC1`, the EC50 is > 11 µM (inactive).

`O=c1[nH]c(=O)n(-c2cccc(F)c2)c(O)c1/C=C1\C=Nc2ccccc21`: the EC50 was > 11 µM (inactive).

`COc1cccc(C(=O)NNc2nc(C)cc(C)n2)c1`: the EC50 was > 11 µM (inactive).

In the case of `CC(=O)Nc1ccc(NC(=O)C(C)OC(=O)/C(C#N)=C/c2ccc(N(C)C)cc2)cc1` (stereo not drawn), the EC50 is > 11 µM (inactive).

Turning to `N#CC(C#N)=Cc1ccc(NC(=O)c2ccc(Br)cc2)cc1`, the EC50 is > 11 µM (inactive).

As for `C/C(O)=c1/ccc2cccc3nc(C)nc1c23`, the EC50 is > 11 µM (inactive).

Take `COc1ccc(NC(=O)c2sc3nc(-c4cccnc4)ccc3c2N)cc1`: the EC50 is > 11 µM (inactive).

Take `C/C(=N\NC(=O)c1nnn(-c2nonc2N)c1-c1cccs1)c1cccc(O)c1`: the EC50 was > 11 µM (inactive).

With `CC(NC(=O)COc1ccccc1)C(=O)OCC(=O)c1cc2ccccc2o1` (stereo not drawn), the EC50 was > 11 µM (inactive).

In the case of `Cc1ccc(N=Nc2c(O)ccc3n[nH]nc23)cc1`, the EC50 was > 11 µM (inactive).

`CCOC(=O)c1ccc(-n2c(CCC(=O)O)ccc2-c2ccccc2)cc1`: the EC50 is > 11 µM (inactive).

As for `COc1ccc(NC(=O)CCl)cn1`, the EC50 was > 11 µM (inactive).

As for `O=C1c2cccc3c(N4CCCCC4)ccc(c23)C(=O)N1c1ccccn1`, the EC50 is > 11 µM (inactive).

In the case of `COc1cc(OC)c(C2C(C#N)=C(N)OC3=C2C(=O)CC(C)(C)C3)cc1OC` (stereo not drawn), the EC50 was > 11 µM (inactive).

Regarding `O=C(O)c1ccc2nc(-c3ccco3)c(-c3ccco3)nc2c1`, the EC50 was > 11 µM (inactive).

Turning to `CCN(CC)CCN(Cc1cc2ccc(C)c(C)c2[nH]c1=O)C(=S)NCc1ccco1`, the EC50 is > 11 µM (inactive).

In the case of `O=C(O)c1ccccc1-n1cccc1C(=O)O`, the EC50 is > 11 µM (inactive).

`N#CC1=C(N)C(C#N)(C#N)C(c2cccnc2)C2COCC=C12` (stereo not drawn): the EC50 is > 11 µM (inactive).

As to `CCn1c(SCC(=O)Nc2cc(C)on2)nnc1-c1ccc(OC)cc1`, the EC50 is > 11 µM (inactive).

With `CCCOc1cccc(C2C(C(=O)c3ccco3)=C(O)C(=O)N2c2nnc(C)s2)c1` (stereo not drawn), the EC50 was > 11 µM (inactive).

With `Cc1cc2c3c(c1)C(C)CC(C)(C)N3C(=O)C2=O` (stereo not drawn), the EC50 was > 11 µM (inactive).

Take `CN1C(=O)/C(=C/c2ccc3c(c2)OCO3)N=C1c1ccccc1`: the EC50 was > 11 µM (inactive).

On to `Cc1ccc2ccc(C3C(=O)c4ccccc4C3=O)nc2c1`, for which the EC50 is > 11 µM (inactive).

On to `Cc1ccc(N2C(=O)NC(=O)/C(=C\c3cc(C)n(-c4ccc(C(=O)O)cc4)c3C)C2=O)cc1`, for which the EC50 is > 11 µM (inactive).

With `Cc1c(C(=O)O)cccc1-n1c(C)cc(/C=N/Nc2ccc([N+](=O)[O-])cn2)c1C`, the EC50 was > 11 µM (inactive).

Regarding `Cc1cc2nc3ccc(=[N+](C)C)cc-3sc2cc1N`, the EC50 was > 11 µM (inactive).

Take `O=c1cc(-c2ccccc2Cl)oc2c(NS(=O)(=O)c3cc(Cl)cc(Cl)c3O)ccc(O)c12`: the EC50 is > 11 µM (inactive).

As for `O=C(Nc1ccccc1O)c1cccc(S(=O)(=O)Nc2ccccc2O)c1`, the EC50 was > 11 µM (inactive).

For the compound `c1ccc2[nH]c3cc4ncnc4cc3nc2c1`, the EC50 was > 11 µM (inactive).

As to `COc1ccc(OC)c(C2Nc3c(Cl)ccc(C(=O)O)c3C3C=CCC32)c1` (stereo not drawn), the EC50 is > 11 µM (inactive).

As for `Cc1ccc(N2C(=O)NC(=O)/C(=C\c3cc(C)n(-c4cc(C(=O)O)cc(C(=O)O)c4)c3C)C2=O)cc1`, the EC50 was > 11 µM (inactive).

For `Cc1cccc(NC(=O)/C(C#N)=C\c2cc(C)n(-c3ccc(C(=O)O)cc3)c2C)c1`, the EC50 is > 11 µM (inactive).
